Measured values taken from patent US6479283B1, “Stimulation, culture and preservation of pancreatic cells” (Ascendia AB, priority 1997, dated 2002).

Legend:
[1] = system: naked mice with induced diabetes; test: Transplantation of cultured ICC in naked mice with alloxan-induced diabetes; type: in vivo; conditions: second series, 1×3 μl ICC; 1 mM DG added to HPMC culture medium
Description: Transplantation in Naked Mice with Induced Diabetes
Diabetes was induced in naked mice by injection of alloxan (Dunn, J S, and McLetchie, Lancet 2 (1943) 384; Boquist L, Acta Pathol. Microbiol. Scand., Sect. A, 88 (1980) 201) resulting in […] within a few days indicated by blood glucose levels >25 mm. After about one week intact ICCs from other mice of this strain were transplanted to the […] anaesthetized animals. An incision was made in the abdominal wall and the left kidney was mobilized. A small hole was made in the kidney's thin […] capsule and a pipette containing ICC was carefully inserted therethrough under the capsule. The ICCs were deposited within the capsule, the pipette withdrawn and the abdominal wall and skin sutured.
In a first series of experiments an ICC standard dose of 2×3 μl corresponding to 600 ICC was injected. Three types of ICCs were compared:
(1) control, i.e. ICC islets cultured in medium RPMI 1640+10 mm nicotine amide+10% human serum (HS);
(2) ICC islets cultured in medium RPMI 1640+10 mm nicotine amide+10% human serum (HS)+9% of 1.5% HPMC in saline; […]
Numbers in square brackets indicate number of animals. […] Blood glucose was determined on day 7 and in weekly intervals thereafter. The arrow indicates nephrectomy, i.e., the kidney with ICC transplant was removed and blood glucose was determined one week thereafter. […]

[2] = system: fibroblast growth in ICC cultures; test: Fibroblast growth in ICC cultures; type: cell-based, porcine; conditions: 1 mM DG
Description: (§1) (3) ICC islets cultured in medium RPMI 1640+10 mm nicotine amide+10% human serum (HS)+9% of 1.5% HPMC in saline+1 mm 2-deoxyglucose (DG).

[3] = system: fetal porcine ICCs; test: Differentiation of fetal porcine ICCs (glucose stimulated release of insulin), separate experiments; type: cell-based
Description: as §1

## O=CC[C@@H](O)[C@H](O)[C@H](O)CO [DG, 2-deoxyglucose]
[1]
  Effect of DG on the reduction of blood glucose levels: clearly beneficial effect on the reduction of blood glucose levels
[2]
  Fibroblast growth: reduces fibroblast growth
[3]
  Differentiation giving rise to glucose stimulated release of insulin: does not affect the differentiation
